Results: paper PMC11079024, “Identification of a family of species-selective complex I inhibitors as potential anthelmintics” (Nature Communications, 2024)
pIC50: −log10 of the molar value. Read-outs that look alike come from different tables or passages of the source.

Assays:
[1] = target: C. elegans (N2) complex I (NADH:ubiquinone oxidoreductase) (Caenorhabditis elegans, UniProt P24887+Q93873+Q94360); assay: biochemical; assay type: biochemical
How it was run: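 Compounds were tested against freeze-thawed isolated mitochondria (0.2 mg/mL protein). NADH:decylubiquinone activity was monitored via DCIP absorbance at 600 nm, and the initial linear slope was normalised to solvent controls.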

[2] = target: B. taurus (heart) complex I (Bos taurus, UniProt P03887+P17694+P42026); assay: biochemical; assay type: biochemical
How it was run: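 Complex I activity followed as DCIP reduction (600 nm, 30 s reads, 15 min) with 80 μM NADH and 60 μM decylubiquinone in 25 mM KPi pH 7.5 containing 2 μM antimycin A and 2 mM KCN. Freeze-thawed mouse or bovine heart mitochondria at 0.2 mg/mL; initial-rate percent of solvent control, single-point 100 μM or dose-response.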

Chain of B. taurus (heart) complex I (P03887 whole entry): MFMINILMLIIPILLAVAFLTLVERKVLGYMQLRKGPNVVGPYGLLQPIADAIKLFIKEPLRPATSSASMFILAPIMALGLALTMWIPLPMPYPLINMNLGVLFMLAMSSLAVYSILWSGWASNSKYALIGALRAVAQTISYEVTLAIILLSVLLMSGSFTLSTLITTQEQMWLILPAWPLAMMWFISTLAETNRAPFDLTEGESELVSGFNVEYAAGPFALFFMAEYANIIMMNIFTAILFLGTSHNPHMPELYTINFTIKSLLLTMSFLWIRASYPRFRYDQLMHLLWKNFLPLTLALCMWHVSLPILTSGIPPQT
Chain of B. taurus (heart) complex I (P17694 34-463): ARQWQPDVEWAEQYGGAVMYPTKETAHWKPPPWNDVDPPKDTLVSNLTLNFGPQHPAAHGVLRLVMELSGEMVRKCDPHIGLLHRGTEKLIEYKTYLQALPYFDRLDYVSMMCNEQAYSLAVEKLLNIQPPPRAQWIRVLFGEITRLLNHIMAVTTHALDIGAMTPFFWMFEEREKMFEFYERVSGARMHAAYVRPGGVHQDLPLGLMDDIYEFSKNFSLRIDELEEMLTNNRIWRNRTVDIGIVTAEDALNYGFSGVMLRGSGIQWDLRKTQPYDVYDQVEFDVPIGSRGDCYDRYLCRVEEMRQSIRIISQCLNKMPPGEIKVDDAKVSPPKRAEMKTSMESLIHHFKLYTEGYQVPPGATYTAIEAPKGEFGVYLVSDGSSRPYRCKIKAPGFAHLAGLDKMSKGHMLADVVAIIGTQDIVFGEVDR
Chain of B. taurus (heart) complex I (P42026 38-216): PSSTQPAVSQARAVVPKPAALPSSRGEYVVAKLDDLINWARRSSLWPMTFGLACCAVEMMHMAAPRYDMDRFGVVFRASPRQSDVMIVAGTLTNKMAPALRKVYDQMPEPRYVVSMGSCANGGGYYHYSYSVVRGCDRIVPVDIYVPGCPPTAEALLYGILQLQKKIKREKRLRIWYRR
Chain of C. elegans (N2) complex I (NADH:ubiquinone oxidoreductase) (Q94360 17-199): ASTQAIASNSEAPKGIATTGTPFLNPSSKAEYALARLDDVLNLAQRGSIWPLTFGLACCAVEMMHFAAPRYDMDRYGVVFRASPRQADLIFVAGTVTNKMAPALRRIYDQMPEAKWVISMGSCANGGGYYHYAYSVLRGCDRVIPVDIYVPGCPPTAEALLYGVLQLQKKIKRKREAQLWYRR
Chain of C. elegans (N2) complex I (NADH:ubiquinone oxidoreductase) (P24887 whole entry): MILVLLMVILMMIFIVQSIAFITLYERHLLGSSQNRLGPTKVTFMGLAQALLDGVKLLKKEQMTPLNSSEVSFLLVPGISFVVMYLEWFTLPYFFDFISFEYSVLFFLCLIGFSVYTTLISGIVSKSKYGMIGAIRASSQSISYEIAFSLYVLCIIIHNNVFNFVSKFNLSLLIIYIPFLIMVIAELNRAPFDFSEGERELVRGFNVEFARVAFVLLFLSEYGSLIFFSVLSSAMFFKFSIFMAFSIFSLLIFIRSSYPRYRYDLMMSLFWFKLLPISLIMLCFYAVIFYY
Chain of C. elegans (N2) complex I (NADH:ubiquinone oxidoreductase) (Q93873 31-482): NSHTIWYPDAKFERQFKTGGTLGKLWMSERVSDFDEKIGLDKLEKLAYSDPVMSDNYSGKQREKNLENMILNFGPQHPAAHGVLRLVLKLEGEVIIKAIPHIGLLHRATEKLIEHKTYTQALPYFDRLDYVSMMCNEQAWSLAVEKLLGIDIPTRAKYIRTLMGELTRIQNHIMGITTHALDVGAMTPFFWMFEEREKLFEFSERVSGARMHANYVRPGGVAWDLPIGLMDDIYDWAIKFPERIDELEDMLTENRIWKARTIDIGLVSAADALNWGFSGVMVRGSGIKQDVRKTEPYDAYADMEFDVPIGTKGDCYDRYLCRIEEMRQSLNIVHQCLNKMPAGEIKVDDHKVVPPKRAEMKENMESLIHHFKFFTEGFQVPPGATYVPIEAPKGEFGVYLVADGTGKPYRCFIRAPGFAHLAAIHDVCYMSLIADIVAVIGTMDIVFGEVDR

Cc1ccc(C(C)C)c(OCC(O)Cn2cnc3ccccc32)c1 (stereo not shown) [Compound 6093301]
activity at 0.0001 µM ([1]; Dose 0.0001 µM, read-out: C. elegans mitochondrial complex I activity): 99.6%
activity at 0.0005 µM ([1]; Dose 0.0005 µM, read-out: C. elegans mitochondrial complex I activity): 97.6%
activity at 0.001 µM ([1]; Dose 0.001 µM, read-out: C. elegans mitochondrial complex I activity): 98.6%
activity at 0.0025 µM ([1]; Dose 0.0025 µM, read-out: C. elegans mitochondrial complex I activity): 105%
activity at 0.005 µM ([1]; Dose 0.005 µM, read-out: C. elegans mitochondrial complex I activity): 96.1%
activity at 0.013 µM ([1]; Dose 0.013 µM, read-out: C. elegans mitochondrial complex I activity): 93.6%
activity at 0.025 µM ([1]; Dose 0.025 µM, read-out: C. elegans mitochondrial complex I activity): 90.6%
activity at 0.063 µM ([1]; Dose 0.063 µM, read-out: C. elegans mitochondrial complex I activity): 81.2%
activity at 0.125 µM ([1]; Dose 0.125 µM, read-out: C. elegans mitochondrial complex I activity): 72.6%
activity at 0.313 µM ([1]; Dose 0.313 µM, read-out: C. elegans mitochondrial complex I activity): 50.3%
activity at 0.625 µM ([1]; Dose 0.625 µM, read-out: C. elegans mitochondrial complex I activity): 38.5%
activity at 1.5 µM ([1]; Dose 1.5 µM, read-out: C. elegans mitochondrial complex I activity): 20.3%
activity at 3 µM ([1]; Dose 3 µM, read-out: C. elegans mitochondrial complex I activity): 11.5%
activity at 15 µM ([1]; Dose 15 µM, read-out: C. elegans mitochondrial complex I activity): 1.13%
activity at 37.5 µM ([1]; Dose 37.5 µM, read-out: C. elegans mitochondrial complex I activity): 0%
activity at 75 µM ([1]; Dose 75 µM, read-out: C. elegans mitochondrial complex I activity): 0%
pIC50 ([1]; in vitro complex I dose response on C. elegans mitochondria, average of at least two biological replicates, fit in R (DRC), read-out: IC50 C. elegans complex I): 6.44
Log IC50 C. elegans complex I ([1]; log10 of IC50 in µM, C. elegans mitochondria): -0.44 µM
pIC50 ([1]; wild-type C. elegans mitochondria, estimated from fitted dose-response curves, read-out: C. elegans Complex I IC50): 6.44
pIC50 ([2]; B. taurus heart mitochondria, estimated from fitted dose-response curves, read-out: B. taurus Complex I IC50): 5.68
activity at 0.0001 µM ([2]; Dose 0.0001 µM, read-out: B. taurus mitochondrial complex I activity): 94.9%
activity at 0.0005 µM ([2]; Dose 0.0005 µM, read-out: B. taurus mitochondrial complex I activity): 95.3%
activity at 0.001 µM ([2]; Dose 0.001 µM, read-out: B. taurus mitochondrial complex I activity): 95.9%
activity at 0.0025 µM ([2]; Dose 0.0025 µM, read-out: B. taurus mitochondrial complex I activity): 100%
activity at 0.005 µM ([2]; Dose 0.005 µM, read-out: B. taurus mitochondrial complex I activity): 99.5%
activity at 0.013 µM ([2]; Dose 0.013 µM, read-out: B. taurus mitochondrial complex I activity): 100%
activity at 0.025 µM ([2]; Dose 0.025 µM, read-out: B. taurus mitochondrial complex I activity): 96.1%
activity at 0.063 µM ([2]; Dose 0.063 µM, read-out: B. taurus mitochondrial complex I activity): 94%
activity at 0.125 µM ([2]; Dose 0.125 µM, read-out: B. taurus mitochondrial complex I activity): 90%
activity at 0.313 µM ([2]; Dose 0.313 µM, read-out: B. taurus mitochondrial complex I activity): 81.5%
activity at 0.625 µM ([2]; Dose 0.625 µM, read-out: B. taurus mitochondrial complex I activity): 75.8%
activity at 1.5 µM ([2]; Dose 1.5 µM, read-out: B. taurus mitochondrial complex I activity): 60.4%
activity at 3 µM ([2]; Dose 3 µM, read-out: B. taurus mitochondrial complex I activity): 45.2%
activity at 15 µM ([2]; Dose 15 µM, read-out: B. taurus mitochondrial complex I activity): 18%
activity at 37.5 µM ([2]; Dose 37.5 µM, read-out: B. taurus mitochondrial complex I activity): 13.4%
activity at 75 µM ([2]; Dose 75 µM, read-out: B. taurus mitochondrial complex I activity): 11.2%
Log IC50 B. taurus complex I ([2]; log10 of IC50 in µM, B. taurus mitochondria): 0.32 µM
